# Laboratory results: patent US20220132846A1, “1-PYRIDYL-PYRAZOLYL AMIDE COMPOUNDS AND PREPARATION AND USES THEREOF” (HUNAN RESEARCH INSTITUTE OF CHEMICAL INDUSTRY CO., LTD., priority 2019, published 2022)
# Where two headings read alike, the source gives them in different places.
# How the values were obtained:
# [1] = tested on: Aphis fabae; test: Test against aphid, leaf dip method (Aphis fabae); assay type: in vivo; settings: foliar; for mortality at 12.5 µg/mL / mortality at 50 µg/mL / mortality at 200 µg/mL / mortality at 500 µg/mL: read-out: Activity (mortality) level against Aphis fabae
# Procedure: For evaluating the activity of the compounds of this invention against Homoptera pests, Aphis fabae, wheat aphids, etc. were selected as the test insects, and the activity of the compounds of this invention against aphids was measured by leaf dip method indoors.
# Leaf dip method (Aphis fabae): the test compound was dissolved in an appropriate solvent such as N,N-dimethylformamide, and then diluted with 0.2% aqueous solution of Tween 80 to the desired concentration, Those without the test compounds were set as blank controls, the treatments were replicated 3 times. Horsebean seedlings with no less than twenty 3-day-old Aphis fabae per plant was cut from the stem, 5 horsebean seedlings with the insects were dipped in the test solution for 5 seconds, then inserted into a sponge filled with water after sucked dry using filter paper, then covered with a glass tube and placed in a chamber for culture. After 24 hours, the number of living and dead insects were investigated and the results were averaged. […]
# [2] = tested on: Armyworm (Mythimna separata (Walker)); test: Test against armyworm, Potter tower method; assay type: in vivo; settings: for mortality at 12.5 µg/mL / mortality at 50 µg/mL / mortality at 500 µg/mL: Mythimna separata, read-out: Activity (mortality) level against armyworm
# Procedure: Potter tower method: the test compound was dissolved in an appropriate solvent such as N,N-dimethylformamide, and then diluted with 0.2% aqueous solution of Tween 80 to the desired concentration, Those without the test compounds were set as blank controls. The fresh and tender corn leaves were taken and cut into fragments of basically the same size, then put into a Petri dish (diameter 90 mm) padded with filter paper in advance. Ten third-instar larvae of test insects were transferred into the dish and then placed under the Potter spray tower for being sprayed, each concentration treatment was sprayed at the amount of 1 mL and replicated 3 times. The dish was covered and then placed in a chamber for culture and observed regularly, after 72 hours, the dead insects was investigated and recorded and the mean mortality was calculated. […]
# [3] = 12.5 mg/L, third-instar larvae, after 72 hours
# [4] = 50 mg/L, third-instar larvae, after 72 hours
# [5] = 500 mg/L, third-instar larvae, after 72 hours
Compound,"mortality at 12.5 µg/mL ([1]; 12.5 mg/L, after 24 hours) [%]","mortality at 50 µg/mL ([1]; 50 mg/L, after 24 hours) [%]","mortality at 200 µg/mL ([1]; 200 mg/L, after 24 hours) [%]","mortality at 500 µg/mL ([1]; 500 mg/L, after 24 hours) [%]","mortality at 12.5 µg/mL [2, 3] [%]","mortality at 50 µg/mL [2, 4] [%]","mortality at 500 µg/mL [2, 5] [%]",mortality at 12.5 µg/mL ([1]; 24 h) [%],mortality at 50 µg/mL ([1]; 24 h) [%],mortality at 200 µg/mL ([1]; 24 h) [%],mortality at 500 µg/mL ([1]; 24 h) [%],LC50 ([1]; read-out: LC50 against Aphis fabae) [µg/mL],mortality at 12.5 µg/mL ([2]; 72 h) [%],mortality at 50 µg/mL ([2]; 72 h) [%],mortality at 500 µg/mL ([2]; 72 h) [%],"Activity against armyworm, further screening (in words) ([2]; compared with chlorantraniliprole (D1))"
"CN(C(=O)c1cc(Br)nn1-c1ncccc1Cl)c1c(Cl)cc(Cl)cc1C(=O)NC1CC1 [Compound 6, N-[2,4-dichloro-6-[(cyclopropylamino)carbonyl]phenyl]-N-methyl-1-(3-chloro-2-pyridinyl)-3-bromo-1H-pyrazole-5-carboxamide]",90 to 100,90 to 100,90 to 100,90 to 100,90 to 100,90 to 100,90 to 100,,,,,,,,,
"CCCCNC(=O)c1cc(Cl)cc(Cl)c1N(C)C(=O)c1cc(Br)nn1-c1ncccc1Cl [Compound 7, N-[2,4-dichloro-6-[(butylamino)carbonyl]phenyl]-N-methyl-1-(3-chloro-2-pyridinyl)-3-bromo-1H-pyrazole-5-carboxamide]",,90 to 100,90 to 100,90 to 100,,90 to 100,90 to 100,,,,,,,,,
"CCCN(C(=O)c1cc(Br)nn1-c1ncccc1Cl)c1c(Br)cc(Cl)cc1C(=O)N(C)C [Compound 41, N-[2-bromo-4-chloro-6-[(dimethylamino)carbonyl]phenyl]-N-propyl-1-(3-chloro-2-pyridinyl)-3-bromo-1H-pyrazole-5-carboxamide]",90 to 100,90 to 100,90 to 100,90 to 100,,90 to 100,90 to 100,,,,,,,,,
"CCN(C)C(=O)c1cc(Cl)cc(C)c1N(C)C(=O)c1cc(Br)nn1-c1ncccc1Cl [Compound 45, N-[2-methyl-4-chloro-6-[(methyl(ethyl)amino)carbonyl]phenyl]-N-methyl-1-(3-chloro-2-pyridinyl)-3-bromo-1H-pyrazole-5-carboxamide]",,,,90 to 100,,,90 to 100,,,,,,,,,
"CCN(CC)C(=O)c1cc(Br)cc(C)c1N(C)C(=O)c1cc(Br)nn1-c1ncccc1Cl [Compound 48, N-[2-methyl-4-bromo-6-[(diethylamino)carbonyl]phenyl]-N-methyl-1-(3-chloro-2-pyridinyl)-3-bromo-1H-pyrazole-5-carboxamide]",,,,90 to 100,,90 to 100,90 to 100,,,,,,,,,
"CC(C)N(C)C(=O)c1cc(Cl)cc(Cl)c1N(C)C(=O)c1cc(Br)nn1-c1ncccc1Cl [Compound 13, N-[2,4-dichloro-6-[(methyl(isopropyl)amino)carbonyl]phenyl]-N-methyl-1-(3-chloro-2-pyridinyl)-3-bromo-1H-pyrazole-5-carboxamide]",90 to 100,90 to 100,90 to 100,90 to 100,,90 to 100,90 to 100,,,,,,,,,
"CNC(=O)c1cc(C#N)cc(C)c1NC(=O)c1cc(Br)nn1-c1ncccc1Cl [Compound D2, cyantraniliprole, reference compound]",,,,,,,,90 to 100,90 to 100,90 to 100,90 to 100,> 1,90 to 100,90 to 100,90 to 100,
"CCN(CC)C(=O)c1cc(Cl)cc(Br)c1N(CC)C(=O)c1cc(Br)nn1-c1ncccc1Cl [Compound 40, N-[2-bromo-4-chloro-6-[(diethylamino)carbonyl]phenyl]-N-ethyl-1-(3-chloro-2-pyridinyl)-3-bromo-1H-pyrazole-5-carboxamide]",90 to 100,90 to 100,90 to 100,90 to 100,90 to 100,90 to 100,90 to 100,,,,,,,,,excellent activity
"CN(C(=O)c1cc(Br)nn1-c1ncccc1Cl)c1c(Br)cc(Cl)cc1C(=O)N(C)C1CC1 [Compound 35, N-[2-bromo-4-chloro-6-[(methyl(cyclopropyl)amino)carbonyl]phenyl]-N-methyl-1-(3-chloro-2-pyridinyl)-3-bromo-1H-pyrazole-5-carboxamide]",90 to 100,90 to 100,90 to 100,90 to 100,,90 to 100,90 to 100,,,,,,,,,
